Measurements as given in patent US20250230165A1, “HETEROCYCLIC COMPOUNDS FOR USE IN THE TREATMENT OF CANCER” (ARTIOS PHARMA LIMITED, priority 2021, published 2025).

Target: T1, Human Polθ polymerase domain (aa1820-2590) (Homo sapiens, UniProt O75417)
T1 construct: Human Polθ polymerase domain (aa1820-2590) was expressed in E. coli; made in house; host or cells: E. coli
T1 sequence (O75417 1820-2590): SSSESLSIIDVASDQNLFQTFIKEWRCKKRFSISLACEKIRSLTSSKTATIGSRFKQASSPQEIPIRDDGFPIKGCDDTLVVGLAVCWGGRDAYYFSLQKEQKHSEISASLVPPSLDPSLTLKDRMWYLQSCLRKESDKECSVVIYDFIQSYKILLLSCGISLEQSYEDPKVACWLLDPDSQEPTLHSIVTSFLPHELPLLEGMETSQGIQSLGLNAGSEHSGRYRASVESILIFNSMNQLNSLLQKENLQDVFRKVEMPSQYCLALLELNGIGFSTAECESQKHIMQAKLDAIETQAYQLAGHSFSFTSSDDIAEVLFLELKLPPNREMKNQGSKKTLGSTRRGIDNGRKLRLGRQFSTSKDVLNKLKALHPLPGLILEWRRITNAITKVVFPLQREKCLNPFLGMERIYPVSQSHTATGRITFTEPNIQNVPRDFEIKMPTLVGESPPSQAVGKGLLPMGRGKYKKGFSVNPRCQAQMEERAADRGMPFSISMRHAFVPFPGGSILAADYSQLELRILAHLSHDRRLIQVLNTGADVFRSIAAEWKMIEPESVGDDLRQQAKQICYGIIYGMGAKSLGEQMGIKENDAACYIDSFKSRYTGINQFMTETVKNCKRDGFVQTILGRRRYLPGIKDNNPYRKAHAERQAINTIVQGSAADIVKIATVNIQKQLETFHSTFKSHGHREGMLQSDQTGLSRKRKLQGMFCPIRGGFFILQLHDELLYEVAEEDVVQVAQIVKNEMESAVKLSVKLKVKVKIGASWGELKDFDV
Assay: Polθ Polymerase Domain Kinact/KI Assay (PicoGreen)
Format: biochemical
Conditions: 0.8 nM Polθ, 100 nM DNA substrate, kobs vs [I] fit for 2-step covalent inhibitor
How it was run: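 Time-dependent inhibition was followed with 0.8 nM polymerase domain, 100 nM DNA substrate and […], reactions quenched over 60 min and quantified by PicoGreen. Kinact and KI came from a secondary plot of kobs against inhibitor concentration.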

| Kinact/Kl [M⁻¹ s⁻¹] | SMILES |
| --- | --- |
| 3.23e+06 | C=C(CN(C)C)C(=O)N1CC(c2ccc(CN3C[C@H]4CC(=O)N(c5cc(C(F)(F)F)cc(C)n5)[C@@H]4C(=O)N(C)c4cccc(C)c43)cc2)C1 [Example 186, (3aR,11aS)-5-(4-(1-(2-((dimethyl-amino)methyl)-acryloyl)azetidin-3-yl)benzyl)-6,10-dimethyl-1-(6-methyl-4-(trifluoro-methyl)pyridin-2-yl)-1,3a,4,5,10,11a-hexahydro-2H-benzo[b]pyrrolo [2,3-f][1,4]diazo-cine-2,11(3H)-dione] |
| 1.41e+06 | C=C(CN(C)C)C(=O)N1CC(c2cc(CN3C[C@H]4CC(=O)N(c5cc(C(F)(F)F)cc(C)n5)[C@@H]4C(=O)N(C)c4cccc(C)c43)ccc2F)C1 [Example 187, (3aR,11aS)-5-(3-(1-(2-((dimethyl-amino)methyl)-acryloyl)azetidin-3-yl)-4-fluorobenz-yl)-6,10-dimethyl-1-(6-methyl-4-(trifluoromethyl)-pyridin-2-yl)-1,3a,4,5,10,11a-hexahydro-2H-benzo[b]pyrrolo [2,3-f][1,4]diazo-cine-2,11(3H)-dione] |
| 3.35e+06 | C=C(CN(C)C)C(=O)NCc1ccc(CN2C[C@H]3CC(=O)N(c4cc(C(F)(F)F)cc(C)n4)[C@@H]3C(=O)N(C)c3cccc(C)c32)cc1 [Example 189, N-(4-(((3aR,11aS)-6,10-dimethyl-1-(6-methyl-4-(trifluoromethyl)-pyridin-2-yl)-2,11-dioxo-1,2,3,3a,4, 10,11,11a-octa-hydro-5H-benzo [b]pyrrolo[2,3-f] [1,4]diazocin-5-yl)-methyl)benzyl)-2-((dimethylamino)-methyl)acrylamide] |
| 2.93e+06 | C=C(CN(C)C)C(=O)NCc1ccc(CN2C[C@H]3CC(=O)N(c4cc(C(F)(F)F)cc(C)n4)[C@@H]3C(=O)N(C)c3cccc(C)c32)cn1 [Example 190, N-((5-(((3aR,11aS)-6,10-dimethyl-1-(6-methyl-4-(trifluoro-methyl)pyridin-2-yl)-2,11-dioxo-1,2,3,3a,4,10,11, 11a-octahydro-5H-benzo[b]pyrrolo [2,3-f][1,4]diazo-cin-5-yl)methyl)-pyridin-2-yl)meth-yl)-2-((dimethyl-amino)methyl)-acrylamide] |

More lines, now with the values behind:

| SMILES | Kinact/Kl [M⁻¹ s⁻¹] |
| --- | --- |
| C=C(CN(C)C)C(=O)NC12CC(CN3C[C@H]4CC(=O)N(c5cc(C(F)(F)F)cc(C)n5)[C@@H]4C(=O)N(C)c4cccc(C)c43)(C1)C2 [Example 184, N-(3-(((3aR,11aS)-6,10-dimethyl-1-(6-methyl-4-(trifluoromethyl)-pyridin-2-yl)-2,11-dioxo-1,2,3,3a,4, 10,11,11a-octa-hydro-5H-benzo [b]pyrrolo[2,3-f] [1,4]diazocin-5-yl)methyl)bicyclo [1.1.1]pentan-1-yl)-2-((dimethyl-amino)methyl)-acrylamide] | 1.33e+06 |
| C=C(CN(C)C)C(=O)NCC12CC(CN3C[C@H]4CC(=O)N(c5cc(C(F)(F)F)cc(C)n5)[C@@H]4C(=O)N(C)c4cccc(C)c43)(C1)C2 [Example 185, N-((3-(((3aR,11aS)-6,10-dimethyl-1-(6-methyl-4-(trifluoromethyl)-pyridin-2-yl)-2,11-dioxo-1,2,3,3a,4, 10,11,11a-octa-hydro-5H-benzo [b]pyrrolo[2,3-f] [1,4]diazocin-5-yl)methyl)bicyclo [1.1.1]pentan-1-yl)methyl)-2-((dimethylamino)-methyl)acrylamide] | 1.27e+06 |
| C=C(CN(C)C)C(=O)N1CC(OCCCN2C[C@H]3CC(=O)N(c4cc(C(F)(F)F)cc(C)n4)[C@@H]3C(=O)Nc3cccc(C)c32)C1 [Example 191, (3aR,11aS)-5-(3-((1-(2-((dimethyl-amino)methyl)-acryloyl)azetidin-3-yl)oxy)propyl)-6-methyl-1-(6-methyl-4-(trifluoro-methyl)pyridin-2-yl)-1,3a,4,5,10, 11a-hexahydro-2H-benzo[b]pyr-rolo[2,3-f][1,4] diazocine-2, 11(3H)-dione] | 1.4e+06 |
